Data taken from ChEMBL document CHEMBL3400147, “New septanoside and 20-hydroxyecdysone septanoside derivative from Atriplex portulacoides roots with preliminary biological activities” (Bioorg Med Chem Lett, 2015).
≈ marks a conversion by molar mass, not a printed value. Calls of active or inactive are those of the source. The calls are words filed in the database; no cut-off is given here.

How the values were obtained:
[1] = Antioxidant activity assessed as ferric-reducing antioxidant power after 20 mins at 50 degC by UV spectrophotometry; assay type: physicochemical
[2] = Antioxidant activity assessed as ABTS radical scavenging activity incubated for 6 mins; assay type: physicochemical
[3] = Antioxidant activity assessed as DPPH radical scavenging activity incubated for 30 mins by UV absorption spectrometry; assay type: physicochemical
Cholinesterase [4] = molecular target: T1, Cholinesterase (Homo sapiens, UniProt P06276); assay: Inhibition of BchE in human plasma incubated for 30 mins using butyrylthiocholine substrate at 37 degC by DTNB dye based spectrophotometry
T1 sequence (P06276 whole entry): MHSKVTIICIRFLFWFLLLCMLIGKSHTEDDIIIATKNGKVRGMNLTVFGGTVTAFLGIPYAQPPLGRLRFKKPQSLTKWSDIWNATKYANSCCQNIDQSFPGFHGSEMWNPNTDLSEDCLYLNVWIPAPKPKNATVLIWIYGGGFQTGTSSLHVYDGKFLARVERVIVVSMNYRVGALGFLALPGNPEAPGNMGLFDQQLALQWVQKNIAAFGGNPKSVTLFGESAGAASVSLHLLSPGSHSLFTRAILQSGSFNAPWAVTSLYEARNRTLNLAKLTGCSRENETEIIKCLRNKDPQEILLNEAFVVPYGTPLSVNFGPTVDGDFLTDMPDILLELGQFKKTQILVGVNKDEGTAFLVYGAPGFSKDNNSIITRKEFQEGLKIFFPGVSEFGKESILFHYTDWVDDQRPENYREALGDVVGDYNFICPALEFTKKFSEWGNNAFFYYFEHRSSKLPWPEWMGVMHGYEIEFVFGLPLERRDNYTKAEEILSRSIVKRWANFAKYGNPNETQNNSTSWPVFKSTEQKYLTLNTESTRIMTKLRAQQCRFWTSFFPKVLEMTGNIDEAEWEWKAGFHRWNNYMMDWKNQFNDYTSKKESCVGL

Escherichia coli = assay: Antimicrobial activity against Escherichia coli ATCC 25922 incubated for 24 hrs by microtiter plate dilution method; assay type: functional
Pseudomonas aeruginosa = assay: Antimicrobial activity against Pseudomonas aeruginosa ATCC 27853 incubated for 24 hrs by microtiter plate dilution method; assay type: functional
Staphylococcus aureus = assay: Antimicrobial activity against Staphylococcus aureus ATCC 25923 incubated for 24 hrs by microtiter plate dilution method; assay type: functional
[5] = Antioxidant activity assessed as catalase activity by measuring hydrogen peroxide disappearance per mg protein measured for 1 min at 25 degC; assay type: physicochemical
Enterococcus faecalis = assay: Antimicrobial activity against Enterococcus faecalis ATCC 29212 incubated for 24 hrs by microtiter plate dilution method; assay type: functional
Cholinesterase [6] = molecular target: T1, Cholinesterase; assay: Inhibition of BchE in human plasma at 1 mg/ml incubated for 30 mins using butyrylthiocholine substrate at 37 degC by DTNB dye based spectrophotometry

Cc1c(C)c2c(c(C)c1O)CCC(C)(C(=O)O)O2 (configuration not stated) [TROLOX]
IC50 [1]: 47.32 µg/mL (≈ 189 µM) | IC50 [2]: 2.02 µg/mL (≈ 8.07 µM) | IC50 [3]: 14.56 µg/mL (≈ 58.2 µM)

CCCCOC1(O)COC[C@@H](O)[C@@H](O)[C@H]1O (some centres not stated)
IC50 [1]: Not Active | IC50 [2]: Not Active | IC50 [3]: Not Active | IC50 (Cholinesterase [4]): Not Active | MIC (Escherichia coli): inactive | MIC (Pseudomonas aeruginosa): inactive | MIC (Staphylococcus aureus): inactive | Activity [5]: Not Active | MIC (Enterococcus faecalis): inactive

CO[C@]1(O[C@@H](CCC(C)(C)O)[C@](C)(O)[C@H]2CC[C@@]3(O)C4=CC(=O)[C@@H]5C[C@@H](O)[C@@H](O)C[C@]5(C)[C@H]4CC[C@]23C)COC[C@@H](O)[C@@H](O)[C@H]1O
IC50 [1]: 288.36 µg/mL (≈ 439 µM) | IC50 [2]: 111.24 µg/mL (≈ 169 µM) | IC50 [3]: 180.26 µg/mL (≈ 274 µM) | IC50 (Cholinesterase [4]; read-out: IC50 (converted)): 837 µM | MIC (Escherichia coli; ATCC 25922, 24 h): 62 µg/mL (≈ 94.4 µM) | inhibition (Cholinesterase [6]): 68.3% | MIC (Pseudomonas aeruginosa; ATCC 27853, 24 h): 125 µg/mL (≈ 190 µM) | MIC (Staphylococcus aureus; ATCC 25923, 24 h): 125 µg/mL (≈ 190 µM) | Activity [5]: 159.62 µmol/min | MIC (Enterococcus faecalis; ATCC 29212, 24 h): 125 µg/mL (≈ 190 µM)

O=C1O[C@H]([C@@H](O)CO)C(O)=C1O [ASCORBIC ACID]
Activity [5]: 757.575 µmol/min

CC(C)(O)CC[C@@H](O)[C@](C)(O)[C@H]1CC[C@@]2(O)C3=CC(=O)[C@@H]4C[C@@H](O)[C@@H](O)C[C@]4(C)[C@H]3CC[C@]12C [20-HYDROXYECDYSONE]
IC50 [1]: 262.45 µg/mL (≈ 546 µM) | IC50 [2]: 98.74 µg/mL (≈ 205 µM) | IC50 [3]: 155.82 µg/mL (≈ 324 µM) | IC50 (Cholinesterase [4]; read-out: IC50 (converted)): 1050 µM | MIC (Escherichia coli; ATCC 25922, 24 h): 125 µg/mL (≈ 260 µM) | inhibition (Cholinesterase [6]): 71.2% | MIC (Pseudomonas aeruginosa; ATCC 27853, 24 h): 62 µg/mL (≈ 129 µM) | MIC (Staphylococcus aureus; ATCC 25923, 24 h): 125 µg/mL (≈ 260 µM) | Activity [5]: 112.35 µmol/min | MIC (Enterococcus faecalis; ATCC 29212, 24 h): 125 µg/mL (≈ 260 µM)

CN[C@H](CC(C)C)C(=O)N[C@H]1C(=O)N[C@@H](CC(N)=O)C(=O)N[C@H]2C(=O)N[C@H]3C(=O)N[C@H](C(=O)N[C@H](C(=O)O)c4cc(O)cc(O)c4-c4cc3ccc4O)[C@H](O)c3ccc(c(Cl)c3)Oc3cc2cc(c3O[C@@H]2O[C@H](CO)[C@@H](O)[C@H](O)[C@H]2O[C@H]2C[C@](C)(N)[C@H](O)[C@H](C)O2)Oc2ccc(cc2Cl)[C@H]1O [VANCOMYCIN]
MIC (Escherichia coli; ATCC 25922, 24 h): 1 µg/mL (≈ 0.69 µM) | MIC (Pseudomonas aeruginosa; ATCC 27853, 24 h): 1 µg/mL (≈ 0.69 µM) | MIC (Staphylococcus aureus; ATCC 25923, 24 h): 3 µg/mL (≈ 2.07 µM) | MIC (Enterococcus faecalis; ATCC 29212, 24 h): 62 µg/mL (≈ 42.8 µM)
